Test results reported in ChEMBL document CHEMBL1154811, “Dehydroconicasterol and aurantoic acid, a chlorinated polyene derivative, from the Indonesian sponge Theonella swinhoei” (J Nat Prod, 2009).

How the values were obtained:
Format in all cases: functional, cell-based
C6 = assay: Cytotoxicity against rat C6 cells
HeLa = assay: Cytotoxicity against human HeLa cells
H9c2 = assay: Cytotoxicity against rat H9c2 cells

Measured: IC50

C/C(Cl)=C/C=C/C=C/C=C/C=C/C(=O)O [AURANTOIC ACID]
> 70 µM: C6 | HeLa | H9c2

C/C(Cl)=C/C=C/C=C/C=C/C=C/C(O)=C1\C(=O)[C@H](CC(N)=O)N([C@@H]2OC[C@@H](O)[C@H](O)[C@H]2O)C1=O [AURANTOSIDE G]
> 70 µM: C6 | HeLa | H9c2

C=C1C2CCC3=C4CC[C@H]([C@H](C)CC[C@@H](C)C(C)C)[C@@]4(C)CC[C@@H]3[C@@]2(C)CC[C@@H]1O (stereo not given in full) [CONICASTEROL]
> 70 µM: C6 | HeLa | H9c2

C=C(CC[C@@H](C)[C@H]1CCC2=C3CCC4C(=C)[C@@H](O)CC[C@]4(C)[C@H]3CC[C@@]21C)C(C)C (stereo not given in full) [DEHYDROCONICASTEROL]
> 70 µM: C6 | HeLa | H9c2

C=C1C2CCC3=C4CC[C@H]([C@H](C)CC[C@H](CC)C(C)C)[C@@]4(C)CC[C@@H]3[C@@]2(C)CC[C@@H]1O (stereo not given in full) [THEONELLASTEROL]
> 70 µM: C6 | HeLa | H9c2
